Patent US20240228986A1, “ENGINEERED CELLS, ENZYMES, AND METHODS FOR PRODUCING CANNABINOIDS” (priority 2021, published 2024)

System: MPT21 (SEQ ID NO: 22; chimera of MPT1 and MPT4) as fusion GPS1.1-F11-MPT21 (SEQ ID NO: 25), expressed in Yarrowia
Test: In vitro activity assay with microsomes of GPS1.1-F11-MPT21
Assay type: biochemical
Settings: microsomes from Yarrowia sCL-SE-0128 + pCL-SE-0664; varying concentrations of OA and DVA; enzyme not purified to homogeneity
Procedure: Yarrowia cells sCL-SE-0128 expressing the fusion of GPS1.1 with MPT4 (pCL-SE-0406) and MPT21 (pCL-SE-0664) were grown at 30 mL culture at 30 C for 2 days in YNB with 20% glucose. The cells were collected by centrifugation, washed with homogenization buffer (MAK340-1KT Sigma Aldrich) and were resuspended in 2 mL of homogenization buffer. The suspended cells were transferred to 5 mL tubes containing 1 mL of glass beads and were homogenized by shaking for 5 min at max speed in a shaker (Retsch MM400). The lysed cells were transferred to new tubes and microsomes were prepared as described in the kit (MAK340-1KT). Activity assays were performed using microsomes from both enzymes and varying concentrations of OA and DVA.

Row | SMILES | Km [µM]
1 | CCCc1cc(O)cc(O)c1C(=O)O [DVA, divarinic acid] | 62.2
2 | CCCCCc1cc(O)cc(O)c1C(=O)O [OA, olivetolic acid] | 20.9
